Data set [1] addresses T1, cGMP PDE5 (Homo sapiens, UniProt O76074).
T1 construct: The required PDE enzymes were isolated from a variety of sources, including human corpus cavernosum, human platelets; from tissue; host or cells: human corpus cavernosum tissue or human platelets
Put plainly: In vitro cGMP PDE5 inhibitory activity (IC50). The format is biochemical. Here is the method: The compounds of the present invention are potent and selective cGMP PDE5 inhibitors. In vitro PDE inhibitory activities against cyclic guanosine 3′,5′-monophosphate (cGMP) and cyclic adenosine 3′,5′-monophosphate (cAMP) phosphodiesterases were determined by measurement of their IC50 values (the concentration of compound required for 50% inhibition of enzyme activity).
The required PDE enzymes were isolated from a variety of sources, including human corpus cavernosum, human platelets, human cardiac ventricle, human skeletal muscle and human and canine retina, essentially by the method of W. J. Thompson and M. M. Appleman (Biochem., 1971, 10, 311). In particular, the cGMP-specific PDE (PDE5) and the cGMP-inhibited cAMP PDE (PDE3) were obtained from human corpus cavernosum tissue or human platelets; the cGMP-stimulated PDE (PDE2) was obtained from human corpus cavernosum or human platelets; the calcium/calmodulin (Ca/CAM)-dependent PDE (PDE1) from human cardiac ventricle; the cAMP-specific PDE (PDE4) from recombinant clone or human skeletal muscle; and the photoreceptor PDE (PDE6) from canine or human retina. Phosphodiesterases 7-11 were generated from full length human recombinant clones transfected into SF9 cells.
Assays were performed either using a modification of the “batch” method of W. J. Thompson et al. (Biochem., 1979, 18, 5228) or using a scintillation proximity assay for the direct detection of AMP/GMP using a modification of the protocol described by Amersham pic under product code TRKQ7090/7100. In summary, the effect of PDE inhibitors was investigated by assaying a fixed amount of enzyme in the presence of varying inhibitor concentrations and low substrate, (cGMP or cAMP in a 3:1 ratio unlabelled to [^3H]-labeled at a conc ˜½ Km) such that IC50 ≅Ki. The final assay volume was made up to 102 μl with assay buffer [20 mM Tris-HCl pH 7.4, 5 mM MgCl2, 1 mg/ml bovine serum albumin]. Reactions were initiated with enzyme, incubated for 30-60 min at 30° C. to give <30% substrate turnover and terminated with 50 μl yttrium silicate SPA beads (containing 3 mM of the respective unlabelled cyclic nucleotide for PDEs 3, 9 and 11). Plates were resealed and shaken for 20 min, after which the beads were allowed to settle for 30 min in the dark and then counted on a TopCount plate reader (Packard, Meriden, Conn.). Radioactivity units were converted to % activity of an uninhibited control (100%), plotted against inhibitor concentration and inhibitor IC50 values obtained using the ‘Fit Curve’ Microsoft Excel extension or inhouse equivalent.

Where [2] appears, read: bounds for groups of Examples, read-out: IC50 values for the PDE5 enzyme.
Setting [3] is: in vitro cGMP PDE5 inhibitory activity, Table 1, read-out: IC50.

Each structure is given as a SMILES string. Where a name gives a salt, the structure may show the parent alone. Read-outs that look alike come from different tables or passages of the source.

Regarding `CCc1c2nc(-c3cc(S(C)(=O)=O)ccc3OCC(C)C)[nH]c(=O)c2nn1Cc1cccnn1` [Example 15, 3-Ethyl-5-[2-isobutoxy-5-(methylsulfonyl)phenyl]-2-(3-pyridazinylmethyl)-2,6-dihydro-7H-pyrazolo[4,3-d]pyrimidin-7-one], the melting point (usually the temperature of the solid-liquid transition) is 244 to 247 °C. Further, the half-maximal inhibitory concentration (IC50) (as a rule, the concentration needed to halve the response being measured) in data set [1] (setting [2]) was less than 10 nM. Further, the IC50 in data set [1] (setting [3]) was found to be 7.3 nM.
For `CCc1nn(Cc2cccnn2)c2c(=O)[nH]c(-c3cc(S(C)(=O)=O)ccc3OCC(C)C)nc12` [Example 16, 3-Ethyl-5-[2-isobutoxy-5-(methylsulfonyl)phenyl]-1-(3-pyridazinylmethyl)-1,6-dihydro-7H-pyrazolo[4,3-d]pyrimidin-7-one] the same measures were 231 to 234 °C, less than 10 nM and 9.8 nM.
Molecule `CCCOc1ncc(S(C)(=O)=O)cc1-c1nc2c(CC)nn(C[C@@H]3CCCN3C)c2c(=O)[nH]1` [Example 23, 3-Ethyl-1-{[(2S)-1-methylpyrrolidinyl]methyl}-5-[5-(methylsulfonyl)-2-propoxy-3-pyridinyl]-1,6-dihydro-7H-pyrazolo[4,3-d]pyrimidin-7-one] showed a melting point of 182 to 183 °C.
In turn, `CCCCOc1ccc(S(C)(=O)=O)cc1-c1nc2c(CC)n(CCN3CCOCC3)nc2c(=O)[nH]1` [Example 8, 5-[2-Butoxy-5-(methylsulfonyl)phenyl]-3-ethyl-2-[2-(4-morpholinyl)ethyl]-2,6-dihydro-7H-pyrazolo[4,3-d]pyrimidin-7-one] yielded a melting point of 235 to 238 °C. In addition, in data set [1] (setting [2]), the IC50 is less than 10 nM. The IC50 in data set [1] (setting [3]) is 10 nM.
The like results for `CCc1c2nc(-c3cc(S(C)(=O)=O)ccc3OCC(C)C)[nH]c(=O)c2nn1CCN1CCOCC1` [Example 10, 3-Ethyl-5-[2-isobutoxy-5-(methylsulfonyl)phenyl]-2-[2-(4-morpholinyl)ethyl]-2,6-dihydro-7H-pyrazolo[4,3-d]pyrimidin-7-one] were, in that order, 268 to 273 °C, less than 10 nM and 7.6 nM.
On to `CCCCOc1ccc(S(C)(=O)=O)cc1-c1nc2c(CC)nn(Cc3ccccn3)c2c(=O)[nH]1` (as salt: potassium) [Example 5, 5-[2-Butoxy-5-(methylsulfonyl)phenyl]-3-ethyl-1-(2-pyridinylmethyl)-1,6-dihydro-7H-pyrazolo[4,3-d]pyrimidin-7-one], for which the melting point fell in the range of 189 to 191 °C.
Consider `CCc1nn(C2CN(C(C)C)C2)c2c(=O)[nH]c(-c3cc(S(C)(=O)=O)ccc3OCC(C)C)nc12` [Example 20], for which the melting point lay within 206 to 209 °C. Moreover, the 50% inhibitory concentration (IC50) in data set [1] (setting [3]) came to 13.7 nM.
Molecule `C=CCc1nc(CC)n2nc(-c3cc(S(C)(=O)=O)ccc3OCCCC)[nH]c(=O)c12` [Example 29] registered a melting point of 192 to 194 °C. Moreover, in data set [1] (setting [2]), the IC50 was less than 10 nM. The IC50 in data set [1] (setting [3]) was found to be 6.7 nM.
The like results for `CCc1nn(Cc2nccn2C)c2c(=O)[nH]c(-c3cc(S(C)(=O)=O)ccc3OCC(C)C)nc12` [Example 7, 3-Ethyl-5-[2-isobutoxy-5-(methylsulfonyl)phenyl]-1-[(1-methyl-1H-imidazol-2-yl)methyl]-1,6-dihydro-7H-pyrazolo[4,3-d]pyrimidin-7-one] were, in that order, 253 to 254 °C, less than 10 nM and 1.7 nM.
As for `CCCOc1ccc(S(C)(=O)=O)cc1-c1nc2c(CC)nn(C[C@@H]3CCCCN3C)c2c(=O)[nH]1` [Example 28, 3-Ethyl-1-{[(2S)-1-methylpiperidinyl]methyl}-5-[5-(methylsulfonyl)-2-propoxyphenyl]-1,6-dihydro-7H-pyrazolo[4,3-d]pyrimidin-7-one], the results for the IC50 in data set [1] (setting [2]) and in data set [1] (setting [3]) were less than 10 nM and 3.6 nM, respectively.
`CCc1nn(Cc2ccccn2)c2c(=O)[nH]c(-c3cc(S(C)(=O)=O)ccc3OCC(C)C)nc12` [Example 3, 3-Ethyl-5-[2-isobutoxy-5-(methylsulfonyl)phenyl]-1-(2-pyridinylmethyl)-1,6-dihydro-7H-pyrazolo[4,3-d]pyrimidin-7-one]: the melting point was 223 to 225 °C. Also, the IC50 in data set [1] (setting [2]) was less than 10 nM. In addition, the IC50 in data set [1] (setting [3]) came to 1.5 nM.
`CCc1c2nc(-c3cc(S(C)(=O)=O)ccc3OCC(C)C)[nH]c(=O)c2nn1C1CCN(C)CC1` [Example 21, 3-Ethyl-5-[2-isobutoxy-5-(methylsulfonyl)phenyl]-2-(1-methyl-4-piperidinyl)-2,6-dihydro-7H-pyrazolo[4,3-d]pyrimidin-7-one]: the melting point was 292 to 295 °C. In data set [1] (setting [3]), the IC50 was determined as 12.5 nM.
Regarding `CCc1nn(Cc2ccccn2)c2c(=O)[nH]c(-c3cc(S(C)(=O)=O)ccc3OCCOC)nc12` [Example 4, 3-Ethyl-5-[2-(2-methoxyethoxy)-5-(methylsulfonyl)phenyl]-1-(2-pyridinylmethyl)-1,6-dihydro-7H-pyrazolo[4,3-d]pyrimidin-7-one], the melting point lay within 166 to 167 °C.
As to `CCc1nn(C[C@@H]2CCCN2C)c2c(=O)[nH]c(-c3cc(S(C)(=O)=O)ccc3OCC(C)C)nc12` [Example 13, 3-Ethyl-5-[2-isobutoxy-5-(methylsulfonyl)phenyl]-1-{[(2S)-1-methylpyrrolidinyl]methyl}-1,6-dihydro-7H-pyrazolo[4,3-d]pyrimidin-7-one], the melting point lay within 190 to 194 °C. Also, the IC50 in data set [1] (setting [2]) was less than 10 nM. In addition, the IC50 in data set [1] (setting [3]) was found to be 6.3 nM.
The molecule `CCCOc1ccc(S(C)(=O)=O)cc1-c1nc2c(CC)nn(Cc3ccccn3)c2c(=O)[nH]1` (as salt: potassium) [Example 11, 3-Ethyl-5-[5-(methylsulfonyl)-2-propoxyphenyl]-1-(2-pyridinylmethyl)-1,6-dihydro-7H-pyrazolo[4,3-d]pyrimidin-7-one] yielded a melting point of 209 to 211 °C.
In the case of `CCc1c2nc(-c3cc(S(C)(=O)=O)ccc3OCC(C)C)[nH]c(=O)c2nn1C1CCN(C(C)C)CC1` [Example 22, 3-Ethyl-5-[2-isobutoxy-5-(methylsulfonyl)phenyl]-2-(1-isopropyl-4-piperidinyl)-2,6-dihydro-7H-pyrazolo[4,3-d]pyrimidin-7-one], the melting point was in the range of 273 to 275 °C. Also, the half-maximal inhibitory concentration (IC50) in data set [1] (setting [3]) is 13.4 nM.
As for `CCCOc1ccc(S(C)(=O)=O)cc1-c1nc2c(CC)n(CCN(C(C)C)C(C)C)nc2c(=O)[nH]1` [Example 25, 2-[2-(diisopropylamino)ethyl]-3-ethyl-5-[5-(methylsulfonyl)-2-propoxyphenyl]-2,6-dihydro-7H-pyrazolo[4,3-d]pyrimidin-7-one], the IC50 in data set [1] (setting [2]) is less than 10 nM; in data set [1] (setting [3]) it was 5.4 nM.
Consider `CCCOc1ccc(S(C)(=O)=O)cc1-c1nc2c(CC)nn(CCN(C(C)C)C(C)C)c2c(=O)[nH]1` [Example 24, 1-[2-(Diisopropylamino)ethyl]-3-ethyl-5-[5-(methylsulfonyl)-2-propoxyphenyl]-1,6-dihydro-7H-pyrazolo[4,3-d]pyrimidin-7-one], for which the IC50 in data set [1] (setting [2]) was less than 10 nM; in data set [1] (setting [3]) it was 6.7 nM.
Regarding `CCc1c2nc(-c3cc(S(C)(=O)=O)ccc3OCC(C)C)[nH]c(=O)c2nn1Cc1ccccn1` [Example 17, 3-Ethyl-5-[2-isobutoxy-5-(methylsulfonyl)phenyl]-2-(2-pyridinylmethyl)-2,6-dihydro-7H-pyrazolo[4,3-d]pyrimidin-7-one], the melting point was 235 to 238 °C. In addition, the concentration for half-maximal inhibition (IC50) in data set [1] (setting [2]) is less than 10 nM. In data set [1] (setting [3]), the 50% inhibitory concentration (IC50) is 4.8 nM.
As to `CCCCOc1ccc(S(C)(=O)=O)cc1-c1nc2c(CC)nn(Cc3ccccn3)c2c(=O)[nH]1` [Example 5, 5-[2-Butoxy-5-(methylsulfonyl)phenyl]-3-ethyl-1-(2-pyridinylmethyl)-1,6-dihydro-7H-pyrazolo[4,3-d]pyrimidin-7-one], the figures for the IC50 in data set [1] (setting [2]) and in data set [1] (setting [3]) were less than 10 nM and 3.5 nM, respectively.
`CCCOc1ccc(S(=O)(=O)CC)cc1-c1nc2c(CC)nn(C[C@@H]3CCCN3C)c2c(=O)[nH]1` [Example 26, 3-Ethyl-5-[5-(ethylsulfonyl)-2-propoxyphenyl]-1-{[(2S)-1-methylpyrrolidinyl]methyl}-1,6-dihydro-7H-pyrazolo[4,3-d]pyrimidin-7-one]: the 50% inhibitory concentration (IC50) in data set [1] (setting [3]) amounted to 18.3 nM.
On to `CCc1n[nH]c2c(=O)[nH]c(-c3cc(S(C)(=O)=O)ccc3OCc3ccccn3)nc12` [Example 6, 3-Ethyl-5-[5-(methylsulfonyl)-2-(2-pyridinylmethoxy)phenyl]-1,6-dihydro-7H-pyrazolo[4,3-d]pyrimidin-7-one], for which the melting point was in the range of 283 to 286 °C.

Source of the values: patent publication US6770645B2, “Pharmaceutically active compounds” (Pfizer Inc., priority 2001, dated 2004).
